Reference: patent publication US20240092835A1, “NOVEL PEPTIDES CAPABLE OF ALTERING NK CELL ACTIVITY” (Massachusetts Institute of Technology, priority 2022, published 2024)

What was measured:
NKG2A+/NKG2C− NK cells = test: NK cell activation markers in NKG2A+/NKG2C- NK cells incubated with peptide and K562 expressing HLA-E (inhibition); format: cell-based, human; conditions: for percentage of CCL3+ NK cells / percentage of CD107a+ NK cells / percentage of IFNG+ NK cells / percentage of TNF+ NK cells: NKG2A+/NKG2C- NK cells, K562/HLA-E
Experimental: (§1) A human immortalized myelogenous leukemia cell line (K562), which expresses HLA-E was incubated with novel peptides (Table 1) derived from the human proteome or human cytomegalovirus proteome. […] Controls assessments were also performed using NKG2A−/NKG2C− cells (Tables 10-13). Inhibition was indicated by a decrease in percent cells positive for cell surface markers, while activation was indicated by an increase in percent cells positive for cell surface markers.

NKG2A−/NKG2C+ NK cells = test: NK cell activation markers in NKG2A-/NKG2C+ NK cells incubated with peptide and K562 expressing HLA-E (activation); format: cell-based, human; conditions: for effect on NKG2A−/NKG2C+ NK cell activation (in words): K562 expressing HLA-E, CD107a, IFNG, TNF, CCL3; for percentage of CCL3+ NK cells / percentage of CD107+ NK cells / percentage of IFNG+ NK cells / percentage of TNF+ NK cells: NKG2A-/NKG2C+ NK cells, K562/HLA-E
Experimental: as §1

NKG2A−/NKG2C− NK cells = test: NK cell activation markers in control NKG2A-/NKG2C- NK cells incubated with peptide and K562 expressing HLA-E; format: cell-based, human
Experimental: as §1

HLA-E = target: T1, HLA-E (Homo sapiens, UniProt P13747); test: HLA-E surface stabilization assay with RMA-S/HLA-E cells; format: cell-based; conditions: 30 μM peptide, 16 hours, anti-HLA-E antibody
T1 construct: expressed in transfected cells; host or cells: RMA-S/HLA-E cells (antigen processing-defective lymphoma cell line)
T1 sequence (P13747 22-358): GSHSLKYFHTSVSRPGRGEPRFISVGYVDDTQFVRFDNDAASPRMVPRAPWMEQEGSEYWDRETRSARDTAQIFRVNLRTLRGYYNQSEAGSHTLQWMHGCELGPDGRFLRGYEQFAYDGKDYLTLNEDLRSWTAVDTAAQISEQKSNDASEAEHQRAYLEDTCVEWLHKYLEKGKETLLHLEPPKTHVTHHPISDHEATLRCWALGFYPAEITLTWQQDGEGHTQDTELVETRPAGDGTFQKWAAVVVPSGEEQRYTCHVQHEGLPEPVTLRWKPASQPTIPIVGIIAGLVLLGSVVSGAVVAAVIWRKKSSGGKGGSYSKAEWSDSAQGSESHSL
T1 sequence (P61769 21-119 partner): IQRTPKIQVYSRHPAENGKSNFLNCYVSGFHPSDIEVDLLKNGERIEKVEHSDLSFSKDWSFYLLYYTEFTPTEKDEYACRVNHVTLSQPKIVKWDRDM
Experimental: HLA-E surface expression was assessed by measuring geometric mean fluorescence intensity (GeoMFI) in RMA-S cells following immunofluorescence staining with an anti-HLA-E antibody (Table 14). Increased GeoMFI was indicative of increased HLA-E surface expression stability following novel peptide exposures (FIG. 3).

Sequence: RMPPRSVLL [human12]
- effect on NKG2A+/NKG2C− NK cell inhibition (in words) (NKG2A+/NKG2C− NK cells; K562 expressing HLA-E, CD107a, IFNG, TNF, CCL3): strong inhibitory
- percentage of CCL3+ NK cells (NKG2A+/NKG2C− NK cells; Trial 1): 1.94%
- percentage of CD107a+ NK cells (NKG2A+/NKG2C− NK cells; Trial 1): 0.85%
- percentage of IFNG+ NK cells (NKG2A+/NKG2C− NK cells; Trial 1): 0.14%
- percentage of TNF+ NK cells (NKG2A+/NKG2C− NK cells; Trial 1): 0.03%
- percentage of CCL3+ NK cells (NKG2A+/NKG2C− NK cells; Trial 2): 2.96%
- percentage of CD107a+ NK cells (NKG2A+/NKG2C− NK cells; Trial 2): 0.99%
- percentage of IFNG+ NK cells (NKG2A+/NKG2C− NK cells; Trial 2): 0.32%
- percentage of TNF+ NK cells (NKG2A+/NKG2C− NK cells; Trial 2): 0.17%
- percentage of CCL3+ NK cells (NKG2A+/NKG2C− NK cells; Trial 3): 2.9%
- percentage of CD107a+ NK cells (NKG2A+/NKG2C− NK cells; Trial 3): 1.25%
- percentage of IFNG+ NK cells (NKG2A+/NKG2C− NK cells; Trial 3): 0.65%
- percentage of TNF+ NK cells (NKG2A+/NKG2C− NK cells; Trial 3): 0.45%
- effect on NKG2A−/NKG2C+ NK cell activation (in words) (NKG2A−/NKG2C+ NK cells; listed as SEQ ID NO. 13): strong activating effects
- effect on NKG2A−/NKG2C+ NK cell activation (in words) (NKG2A−/NKG2C+ NK cells; listed as h12): strong inhibitory and activating effects
- percentage of CCL3+ NK cells (NKG2A−/NKG2C+ NK cells; Trial 1): 55.3%
- percentage of CD107+ NK cells (NKG2A−/NKG2C+ NK cells; Trial 1): 36.5%
- percentage of IFNG+ NK cells (NKG2A−/NKG2C+ NK cells; Trial 1): 20.7%
- percentage of TNF+ NK cells (NKG2A−/NKG2C+ NK cells; Trial 1): 12.6%
- percentage of CCL3+ NK cells (NKG2A−/NKG2C+ NK cells; Trial 2): 83.9%
- percentage of CD107+ NK cells (NKG2A−/NKG2C+ NK cells; Trial 2): 77%
- percentage of IFNG+ NK cells (NKG2A−/NKG2C+ NK cells; Trial 2): 63.3%
- percentage of TNF+ NK cells (NKG2A−/NKG2C+ NK cells; Trial 2): 52.7%
- percentage of CCL3+ NK cells (NKG2A−/NKG2C+ NK cells; Trial 3): 81.7%
- percentage of CD107+ NK cells (NKG2A−/NKG2C+ NK cells; Trial 3): 80.3%
- percentage of IFNG+ NK cells (NKG2A−/NKG2C+ NK cells; Trial 3): 66.3%
- percentage of TNF+ NK cells (NKG2A−/NKG2C+ NK cells; Trial 3): 59.6%
- percentage CCL3+ NK cells (NKG2A−/NKG2C− NK cells; Trial 1): 29.3%
- percentage CD107+ NK cells (NKG2A−/NKG2C− NK cells; Trial 1): 20.2%
- percentage TNF+ NK cells (NKG2A−/NKG2C− NK cells; Trial 1): 3.43%
- percentage of IFNG+ NK cells (NKG2A−/NKG2C− NK cells; Trial 1): 10.2%
- percentage CCL3+ NK cells (NKG2A−/NKG2C− NK cells; Trial 2): 51.6%
- percentage CD107+ NK cells (NKG2A−/NKG2C− NK cells; Trial 2): 29%
- percentage TNF+ NK cells (NKG2A−/NKG2C− NK cells; Trial 2): 9.58%
- percentage of IFNG+ NK cells (NKG2A−/NKG2C− NK cells; Trial 2): 24%
- percentage CCL3+ NK cells (NKG2A−/NKG2C− NK cells; Trial 3): 46.5%
- percentage CD107+ NK cells (NKG2A−/NKG2C− NK cells; Trial 3): 42%
- percentage TNF+ NK cells (NKG2A−/NKG2C− NK cells; Trial 3): 15.5%
- percentage of IFNG+ NK cells (NKG2A−/NKG2C− NK cells; Trial 3): 36.2%
- HLA-E surface expression stability (GeoMFI) (HLA-E; Trial 1): 3779 GeoMFI
- HLA-E surface expression stability (GeoMFI) (HLA-E; Trial 2): 4219 GeoMFI
- HLA-E surface expression stability (GeoMFI) (HLA-E; Trial 3): 4273 GeoMFI
- HLA-E surface expression stability (GeoMFI) (HLA-E; Trial 4): 4705 GeoMFI

Sequence: VMAPQSLLL [VMAPQSLLL (PQS), negative control peptide, reference compound]
- percentage of CCL3+ NK cells (NKG2A+/NKG2C− NK cells; Trial 1): 49.8%
- percentage of CD107a+ NK cells (NKG2A+/NKG2C− NK cells; Trial 1): 29.1%
- percentage of IFNG+ NK cells (NKG2A+/NKG2C− NK cells; Trial 1): 10.1%
- percentage of TNF+ NK cells (NKG2A+/NKG2C− NK cells; Trial 1): 2.95%
- percentage of CCL3+ NK cells (NKG2A+/NKG2C− NK cells; Trial 2): 70.6%
- percentage of CD107a+ NK cells (NKG2A+/NKG2C− NK cells; Trial 2): 47.4%
- percentage of IFNG+ NK cells (NKG2A+/NKG2C− NK cells; Trial 2): 27.3%
- percentage of TNF+ NK cells (NKG2A+/NKG2C− NK cells; Trial 2): 13.3%
- percentage of CCL3+ NK cells (NKG2A+/NKG2C− NK cells; Trial 3): 58.2%
- percentage of CD107a+ NK cells (NKG2A+/NKG2C− NK cells; Trial 3): 46.5%
- percentage of IFNG+ NK cells (NKG2A+/NKG2C− NK cells; Trial 3): 35.1%
- percentage of TNF+ NK cells (NKG2A+/NKG2C− NK cells; Trial 3): 18.8%
- percentage of CCL3+ NK cells (NKG2A+/NKG2C− NK cells; Trial 4): 50.7%
- percentage of CD107a+ NK cells (NKG2A+/NKG2C− NK cells; Trial 4): 40.7%
- percentage of IFNG+ NK cells (NKG2A+/NKG2C− NK cells; Trial 4): 23.1%
- percentage of TNF+ NK cells (NKG2A+/NKG2C− NK cells; Trial 4): 11.6%
- percentage of CCL3+ NK cells (NKG2A+/NKG2C− NK cells; Trial 5): 47.7%
- percentage of CD107a+ NK cells (NKG2A+/NKG2C− NK cells; Trial 5): 30.1%
- percentage of IFNG+ NK cells (NKG2A+/NKG2C− NK cells; Trial 5): 14.1%
- percentage of TNF+ NK cells (NKG2A+/NKG2C− NK cells; Trial 5): 6.1%
- percentage of CCL3+ NK cells (NKG2A+/NKG2C− NK cells; Trial 6): 31.3%
- percentage of CD107a+ NK cells (NKG2A+/NKG2C− NK cells; Trial 6): 24.4%
- percentage of IFNG+ NK cells (NKG2A+/NKG2C− NK cells; Trial 6): 8.37%
- percentage of TNF+ NK cells (NKG2A+/NKG2C− NK cells; Trial 6): 4.14%
- percentage of CCL3+ NK cells (NKG2A−/NKG2C+ NK cells; Trial 1): 47%
- percentage of CD107+ NK cells (NKG2A−/NKG2C+ NK cells; Trial 1): 25.2%
- percentage of IFNG+ NK cells (NKG2A−/NKG2C+ NK cells; Trial 1): 10.6%
- percentage of TNF+ NK cells (NKG2A−/NKG2C+ NK cells; Trial 1): 4.96%
- percentage of CCL3+ NK cells (NKG2A−/NKG2C+ NK cells; Trial 2): 55.3%
- percentage of CD107+ NK cells (NKG2A−/NKG2C+ NK cells; Trial 2): 32.8%
- percentage of IFNG+ NK cells (NKG2A−/NKG2C+ NK cells; Trial 2): 12.7%
- percentage of TNF+ NK cells (NKG2A−/NKG2C+ NK cells; Trial 2): 9.31%
- percentage of CCL3+ NK cells (NKG2A−/NKG2C+ NK cells; Trial 3): 69.4%
- percentage of CD107+ NK cells (NKG2A−/NKG2C+ NK cells; Trial 3): 58.6%
- percentage of IFNG+ NK cells (NKG2A−/NKG2C+ NK cells; Trial 3): 40.7%
- percentage of TNF+ NK cells (NKG2A−/NKG2C+ NK cells; Trial 3): 31.2%
- percentage of CCL3+ NK cells (NKG2A−/NKG2C+ NK cells; Trial 4): 58.6%
- percentage of CD107+ NK cells (NKG2A−/NKG2C+ NK cells; Trial 4): 53.6%
- percentage of IFNG+ NK cells (NKG2A−/NKG2C+ NK cells; Trial 4): 35.6%
- percentage of TNF+ NK cells (NKG2A−/NKG2C+ NK cells; Trial 4): 25.7%
- percentage of CCL3+ NK cells (NKG2A−/NKG2C+ NK cells; Trial 5): 55.4%
- percentage of CD107+ NK cells (NKG2A−/NKG2C+ NK cells; Trial 5): 43%
- percentage of IFNG+ NK cells (NKG2A−/NKG2C+ NK cells; Trial 5): 19.9%
- percentage of TNF+ NK cells (NKG2A−/NKG2C+ NK cells; Trial 5): 14.7%
- percentage of CCL3+ NK cells (NKG2A−/NKG2C+ NK cells; Trial 6): 32.7%
- percentage of CD107+ NK cells (NKG2A−/NKG2C+ NK cells; Trial 6): 22.3%
- percentage of IFNG+ NK cells (NKG2A−/NKG2C+ NK cells; Trial 6): 10.3%
- percentage of TNF+ NK cells (NKG2A−/NKG2C+ NK cells; Trial 6): 5.08%
- percentage CCL3+ NK cells (NKG2A−/NKG2C− NK cells; Trial 1): 35.1%
- percentage CD107+ NK cells (NKG2A−/NKG2C− NK cells; Trial 1): 24.1%
- percentage TNF+ NK cells (NKG2A−/NKG2C− NK cells; Trial 1): 3.46%
- percentage of IFNG+ NK cells (NKG2A−/NKG2C− NK cells; Trial 1): 14%
- percentage CCL3+ NK cells (NKG2A−/NKG2C− NK cells; Trial 2): 57.7%
- percentage CD107+ NK cells (NKG2A−/NKG2C− NK cells; Trial 2): 37.9%
- percentage TNF+ NK cells (NKG2A−/NKG2C− NK cells; Trial 2): 9.07%
- percentage of IFNG+ NK cells (NKG2A−/NKG2C− NK cells; Trial 2): 27.9%
- percentage CCL3+ NK cells (NKG2A−/NKG2C− NK cells; Trial 3): 59.4%
- percentage CD107+ NK cells (NKG2A−/NKG2C− NK cells; Trial 3): 53%
- percentage TNF+ NK cells (NKG2A−/NKG2C− NK cells; Trial 3): 22.6%
- percentage of IFNG+ NK cells (NKG2A−/NKG2C− NK cells; Trial 3): 48.3%
- percentage CCL3+ NK cells (NKG2A−/NKG2C− NK cells; Trial 4): 35%
- percentage CD107+ NK cells (NKG2A−/NKG2C− NK cells; Trial 4): 28%
- percentage TNF+ NK cells (NKG2A−/NKG2C− NK cells; Trial 4): 8.23%
- percentage of IFNG+ NK cells (NKG2A−/NKG2C− NK cells; Trial 4): 19%
- percentage CCL3+ NK cells (NKG2A−/NKG2C− NK cells; Trial 5): 34%
- percentage CD107+ NK cells (NKG2A−/NKG2C− NK cells; Trial 5): 24.4%
- percentage TNF+ NK cells (NKG2A−/NKG2C− NK cells; Trial 5): 8.67%
- percentage of IFNG+ NK cells (NKG2A−/NKG2C− NK cells; Trial 5): 18.6%
- percentage CCL3+ NK cells (NKG2A−/NKG2C− NK cells; Trial 6): 22.4%
- percentage CD107+ NK cells (NKG2A−/NKG2C− NK cells; Trial 6): 19.5%
- percentage TNF+ NK cells (NKG2A−/NKG2C− NK cells; Trial 6): 4.08%
- percentage of IFNG+ NK cells (NKG2A−/NKG2C− NK cells; Trial 6): 10%
